{"source": "paper PMC5141252", "about": "“In silico Screening and Evaluation of the Anticonvulsant Activity of Docosahexaenoic Acid-Like Molecules in Experimental Models of Seizures” (Iranian Biomedical Journal, 2017)", "key": {"[1]": {"system": "clonic seizures induced by pentylenetetrazole", "assay": "Pentylenetetrazole seizure test", "format": "in vivo", "details": "mice; for Protection (%): 15 min before PTZ 60 mg/kg i.p.; for ED50 (mM) and 95% CI: PTZ clonic seizures, log-Probit analysis", "method": "(§1) All compounds were prepared freshly before administration. The compounds were dissolved in DMSO and then were diluted in artificial cerebrospinal fluid consisting (in mM) 124.0 NaCl, 25 NaHCO3, 10 D-glucose,4.4 KCl, 2 MgSO4, 1.25 KH2PO4, and 2 CaCl2. The final concentration of DMSO was maintained at 10%. The pH of the solutions was adjusted at the range of 7.2-7.4. Doses of the compounds were selected based on the preliminary experiments conducted in our laboratory.\n(§2) DHA-like molecules were administered by intracerebroventricular (i.c.v.) route according to the method described earlier. Briefly, a 3.5-mm-long needle (27 Gauge) was connected to a 10-μL Hamilton microsyringe. The site of injection was 2 mm lateral to the midline on a line drawn through the anterior base of the ears and 3.5 mm in depth from the surface of skull skin. The solution was injected at a rate of 10 µL/10 s and the needle left in place for 60 s after injection.\nFifteen minutes after i.c.v. injection of the compounds, PTZ (60 mg/kg) was injected to the mice intraperitoneally (i.p.). This time period was selected based on the time course of DHA anticonvulsant activity in mice[6]. The occurrence of colonic seizures was monitored in animals for 30 min.\n(§3) Statistical analysis was performed by SPSS for Windows software version 16.0. Data obtained from the seizure tests were expressed as percentage of the protected mice. Fisher’s exact test was used to analyze the data. The dose of the drugs that produced anticonvulsant effect in 50% of the animals (ED50), and its associated 95% confidence interval, was calculated by log-Probit analysis."}, "[2]": {"system": "clonic seizures induced by pentylenetetrazole", "design": "method as in PMID 26018398", "details": "PTZ test, mice, i.c.v administration; cited from earlier work"}, "[3]": {"system": "tonic seizures induced by MES", "design": "method as in PMID 26018398", "details": "cited from earlier work"}, "[4]": {"system": "tonic seizures induced by MES", "assay": "Maximal electroshock seizure test", "format": "in vivo", "details": "mice; for Protection (%): 15 min before MES (50 Hz, 50 mA); for ED50 (mM) and 95% CI: i.c.v., MES tonic seizures, log-Probit analysis", "method": "as §1, §2\nFifteen minutes after i.c.v. injection of the compounds, an electrical stimulus (50 Hz, 50 mA, 1 s duration) was delivered to the mice through ear-clip electrodes[6] using a stimulator apparatus (MGH-777, Development of Electronic Industry, Iran).\nas §3"}}, "note": "Marks after values point to notes of the source that are not given here.", "data": [{"compound": "O=C(O)Cc1ccc(-c2ccccc2)cc1", "note": "[4-Biphenylacetic acid]", "values": [{"measurement": "Protection (%)", "setting": "[1]; dose 0.0001 M i.c.v.", "result": 15, "unit": "%"}, {"measurement": "Protection (%)", "setting": "[1]; dose 0.001 M i.c.v.", "result": 35, "unit": "%"}, {"measurement": "Protection (%)", "setting": "[1]; dose 0.0075 M i.c.v.", "result": 50, "unit": "%"}, {"measurement": "Protection (%)", "setting": "[1]; dose 0.01 M i.c.v.", "result": "85^a %"}, {"measurement": "ED50 (mM) and 95% CI", "setting": "[1]; i.c.v.", "result": "5.0 (3.0-5.0) mM"}]}, {"compound": "CC/C=C\\C/C=C\\C/C=C\\C/C=C\\C/C=C\\C/C=C\\CCC(=O)O", "note": "[DHA, Docosahexaenoic acid]", "values": [{"measurement": "ED50", "setting": "[2]", "result": 0.00013, "unit": "mM"}, {"measurement": "inhibition of tonic seizures in the MES model", "setting": "[3]", "result": "not able to inhibit tonic seizures"}]}, {"compound": "O=C(O)CCCc1ccccc1", "note": "[4-Phenylbutyric acid]", "values": [{"measurement": "Protection (%)", "setting": "[1]; dose 0.0001 M i.c.v.", "result": 25, "unit": "%"}, {"measurement": "Protection (%)", "setting": "[1]; dose 0.001 M i.c.v.", "result": "50^b %"}, {"measurement": "Protection (%)", "setting": "[1]; dose 0.01 M i.c.v.", "result": "73.3^a %"}, {"measurement": "ED50 (mM) and 95% CI", "setting": "[1]; i.c.v.", "result": "4.0 (0.0-7.0) mM"}]}, {"compound": "CC(C)(C)C1CCC(C(=O)O)CC1", "note": "(stereo not shown) [4-tert-Butylcyclohexanecarboxylic acid]", "values": [{"measurement": "Protection (%)", "setting": "[4]; dose 0.001 M i.c.v.", "result": 37.5, "unit": "%"}, {"measurement": "Protection (%)", "setting": "[4]; dose 0.01 M i.c.v.", "result": "46.6^b %"}, {"measurement": "Protection (%)", "setting": "[4]; dose 0.1 M i.c.v.", "result": "73.3^a %"}, {"measurement": "ED50 (mM) and 95% CI", "setting": "[4]; listed as 4-tert-Butylcyclo-hexanecarboxylic acid", "result": 637, "unit": "mM"}, {"measurement": "ED50 (mM) and 95% CI", "setting": "[4]; listed as 4-tert-Butylcyclohexane carboxylic acid", "result": "29.0 (0.0-66.0) mM"}]}, {"compound": "O=C(O)Cc1ccccc1", "note": "[Phenylacetic acid]", "values": [{"measurement": "Protection (%)", "setting": "[1]; dose 0.0001 M i.c.v.", "result": 0, "unit": "%"}, {"measurement": "Protection (%)", "setting": "[1]; dose 0.001 M i.c.v.", "result": 20, "unit": "%"}, {"measurement": "Protection (%)", "setting": "[1]; dose 0.01 M i.c.v.", "result": 30, "unit": "%"}, {"measurement": "Protection (%)", "setting": "[1]; dose 0.1 M i.c.v.", "result": "57.5^a %"}, {"measurement": "ED50 (mM) and 95% CI", "setting": "[1]; i.c.v.", "result": 78, "unit": "mM"}, {"measurement": "ED50 (mM) and 95% CI", "setting": "[1]; i.c.v., listed as Phenylbutyric acid", "result": "78.0 (46.0-156.0) mM"}]}, {"compound": "CCC(C(=O)O)c1ccccc1", "note": "(stereo not shown) [2-Phenylbutyric acid]", "values": [{"measurement": "Protection (%)", "setting": "[1]; dose 0.0001 M i.c.v.", "result": 0, "unit": "%"}, {"measurement": "Protection (%)", "setting": "[1]; dose 0.001 M i.c.v.", "result": 30, "unit": "%"}, {"measurement": "Protection (%)", "setting": "[1]; dose 0.01 M i.c.v.", "result": "40^b %"}, {"measurement": "Protection (%)", "setting": "[1]; dose 0.1 M i.c.v.", "result": "56.6^a %"}, {"measurement": "ED50 (mM) and 95% CI", "setting": "[1]; i.c.v.", "result": "70.0 (25.0-144.2) mM"}]}, {"compound": "O=C(O)C1=C[C@@H](O)[C@@H](O)[C@H](O)C1", "note": "[Shikimic acid]", "values": [{"measurement": "Protection (%)", "setting": "[4]; dose 0.01 M i.c.v.", "result": 0, "unit": "%"}, {"measurement": "Protection (%)", "setting": "[4]; dose 0.1 M i.c.v.", "result": 20.0, "unit": "%"}, {"measurement": "Protection (%)", "setting": "[4]; dose 0.5 M i.c.v.", "result": "43.3^b %"}, {"measurement": "Protection (%)", "setting": "[4]; dose 1 M i.c.v.", "result": "70.0^a %"}, {"measurement": "ED50 (mM) and 95% CI", "setting": "[4]", "result": "637.0 (418.0-890.0) mM"}, {"measurement": "ED50 (mM) and 95% CI", "setting": "[4]; listed as shikimic acid", "result": 29, "unit": "mM"}]}, {"compound": "COc1ccc(CC(=O)O)cc1OC", "note": "[3,4-Dimethoxyphenylacetic acid, 3,4-Dimethoxyphenylacetic acid]", "values": [{"measurement": "anticonvulsant activity (in words)", "setting": "[1]; PTZ and MES seizure tests, i.c.v.", "result": "inactive"}]}]}
